Experiments:
bone marrow cells = assay: Bone marrow cell growth stimulation, 4 day culture without added cytokines, cell count; type: cell-based; conditions: 10,000 bone marrow cells per well at start, IMDM, no growth factors, control 10,000 cells
Experimental: Freshly isolated bone marrow cells were isolated and 10,000 cells per well were incubated in 96 microtiter plates in CellGro Iscove's Modified Dulbecco's Medium (IMDM) and with or without (control) the indicated concentrations of Pro-boroPro for 4 days. At the end of this incubation period, the cells were counted under the microscope. The cultures without Pro-boroPro contained 10,000 cells at the end of 4 days. The cultures containing Pro-boroPro had 53,000 cells at 10^−6M, 38,000 cells at 10^−8M and 42,000 cells at 10^−10 M. The cultures containing a growth factor mix (GF) contained 82,000 cells. Growth factors were supplied in OPITEN® Giant Cell Tumor-conditioned medium (IGEN)
Cultures were set up as described in the legend to FIG. 1 except that Lys-boroPro and the homoconjugate were used, and incubated for 4 days.
• 1. Obtain bone marrow or umbilical cord blood in heparinized (green top) tube. Can be stored at room temperature until use within 48 hours. • 2. Mix marrow/blood 1:1 with phosphate-buffered saline, pH 7.4(PBS) that has been stored at 4° C. • 3. Carefully layer blood-PBS mixture on a 2× volume quantity of Histopaque (Sigma) that has been stored at 4° C. • 4. Centrifuge at 400 g×20 minutes at 37° C. • 5. Carefully collect cells at interface and wash ×2 in cold PBS. • 6. Count viable cells using trypan blue. • 7. Set up cells as 1 ml cultures in plastic culture tubes (or 96 well or 24 well microtiter plates) at 10^4 cells/ml in CellGro Iscove's Modified Dulbecco's medium (Meditech) containing kanamycin (5 ug/ml), desired concentration of Xaa-boroPro or other compound of the invention, and the absence or presence of Giant Cell Tumor-Conditioned Medium (GCT-CM, Origen) as source of growth factors. Xaa-boroPro or other compounds of the invention should be diluted to medium and added to culture only after cells are in culture tube. • 8. Cells are cultured at 37° C. in a moist air incubator containing 5% CO2. • 9. At desired time, an aliquot of cells are removed and counted. • 10. […]

Isolated CD34+ cells = Isolated CD34+ cells (98% purity) of bone marrow, 4 day culture: growth stimulation and percent CD34+ remaining; type: cell-based, human
Experimental: (§1) • 1. Obtain bone marrow or umbilical cord blood in heparinized (green top) tube. Can be stored at room temperature until use within 48 hours. • 2. Mix marrow/blood 1:1 with phosphate-buffered saline, pH 7.4(PBS) that has been stored at 4° C. • 3. Carefully layer blood-PBS mixture on a 2× volume quantity of Histopaque (Sigma) that has been stored at 4° C. • 4. Centrifuge at 400 g×20 minutes at 37° C. • 5. Carefully collect cells at interface and wash ×2 in cold PBS. • 6. Count viable cells using trypan blue. • 7. Set up cells as 1 ml cultures in plastic culture tubes (or 96 well or 24 well microtiter plates) at 10^4 cells/ml in CellGro Iscove's Modified Dulbecco's medium (Meditech) containing kanamycin (5 ug/ml), desired concentration of Xaa-boroPro or other compound of the invention, and the absence or presence of Giant Cell Tumor-Conditioned Medium (GCT-CM, Origen) as source of growth factors. Xaa-boroPro or other compounds of the invention should be diluted to medium and added to culture only after cells are in culture tube. • 8. Cells are cultured at 37° C. in a moist air incubator containing 5% CO2. • 9. At desired time, an aliquot of cells are removed and counted. • 10. Counting can be performed under the microscope (direct) or by using the MTT assay (colorimetric assay).

CD34+ isolated cells = assay: CD34+ cells isolated from umbilical cord blood, 4 day culture: cell number and percent CD34+ remaining; type: cell-based, human; conditions: 10^−10M; isolated CD34+ cells (98% CD34+); control 0.6×10^6 cells
Experimental: (§2) Umbilical cord blood cells were incubated under essentially the same conditions as described in the legend to FIG. 1, except that Val-boroPro was used as stimulant at the indicated concentrations. After 4 day incubation: • A: Bulk Umbilical Cord Blood; Total Cell Counts. Control culture: 0.2×10^6 cells; Growth factors 5×10^6 cells; Val-boroPro: 3×10^6 (10^−6M); 3×10^6 (10^−8M); 4×10^6 ([…]). • B: CD34+ isolated cells: CD34+ cells were isolated using CD34 mAb coupled beads for positive selection. Cell preparation contained 98% CD34+ cells. After 4 days of incubation the culture containing 10^−10M Val-boroPro contained 8.5×10^6 cells, compared to 0.6×10^6 cells in the control and 4×10^6 cells in the incubation with growth factors.
C: Percent of CD34+ cells remaining after 4 day culture: Cultures incubated with Val-boroPro contained between 10 and 15% of CD34+ cells after 4 day culture. Cultures incubated with Growth Factors had only 4% of CD34+ cells remaining (panel b).
• 1. Obtain bone marrow or umbilical cord blood in heparinized (green top) tube. Can be stored at room temperature until use within 48 hours. • 2. […] Carefully layer blood-PBS mixture on a 2× volume quantity of Histopaque (Sigma) that has been stored at 4° C. • 4. […] At desired time, an aliquot of cells are removed and counted. • 10. […]

[1] = test system: Umbilical cord blood cells; assay: Bulk umbilical cord blood, total cell counts after 4 day incubation; type: cell-based; conditions: control culture 0.2×10^6 cells
Experimental: as §2, §1

For `O=C(C1CCCN1)N1CCCC1B(O)O` (stereo not drawn) [Pro-boroPro], the “number of cells at the end of 4 days” value (bone marrow cells; 10^−6M) was 53,000 cells, the “number of cells at the end of 4 days” value (bone marrow cells; 10^−8M) was 38,000 cells and the “number of cells at the end of 4 days” value (bone marrow cells; 10^−10 M) was 42,000 cells.

In the case of `CC(C)[C@H](N)C(=O)N1CCC[C@H]1B(O)O` [Val-boroPro], the “increase in stimulation of cellular growth over that in control cultures” value (Isolated CD34+ cells; 4 day culture, concentration not given) is reported as “up to 20 fold”, the “Percent of CD34+ cells remaining in culture after a 4 day incubation period” value (Isolated CD34+ cells; isolated bone marrow CD34+ cells, control 63%) is reported as 43% and the “number of cells after 4 days of incubation” value (CD34+ isolated cells) is reported as 8.5×10^6 cells. The “Total Cell Counts after 4 day incubation” value ([1]; 10^−6M) was 3×10^6, the “Total Cell Counts after 4 day incubation” value ([1]; 10^−8M) was 3×10^6 and the “Total Cell Counts after 4 day incubation” value ([1]; 10^−M (so in the source)) was 4×10^6.
